From patent US20250170090A1, “METHOD FOR PREVENTING OR TREATING DISEASE OR DISORDER ASSOCIATED WITH ANTINEOPLASTIC AGENT” (ONQUALITY PHARMACEUTICALS CHINA LTD., priority 2022, published 2025)
Like-named read-outs stand apart in the source and are kept apart here.

Legend:
[1] = test system: hand-foot syndrome induced by anti-tumor agents; assay: Prevention of hand-foot syndrome induced by anti-tumor agents in rats, NO-NSAID ointment on hind paws (Table 2-2); assay type: in vivo, SD rats; settings: Rattus norvegicus, topical, read-out: Control rate; for responders at 0.5 %: ointment 0.50% wt; for responders at 1 %: ointment 1% wt; for responders at 2.5 %: ointment 2.50% wt; for responders at 5 %: ointment 5% wt; for responders at 2 %: ointment 2% wt; for responders at 3 %: ointment 3% wt
Description: A rat animal model was constructed, and the anti-tumor agents shown in Table 2-2 were respectively administered to 8-week-old female SD rats by daily oral gavage. […] Therefore, rats serve as an excellent animal model for simulating side effects (such as hand-foot syndrome) caused by anti-tumor agents.
After the rats (about 200 g) were fed and adapted for one week, they were divided into a NO-NSAID group and a control group, with 10 rats in each group, and a gavage administration test was conducted. The various anti-tumor agents were dissolve in a mixed solution of Cremophor EL:ethanol=1:1. The anti-tumor agent solution were diluted with PBS to the required concentration (about 3 times with PBS solution) before gavage administration. After gavage, an ointment containing NO-NSAID was applied to the hind paws of the rats, while the control group was applied with a blank ointment. After application, the rats were placed in a fixed cylinder for 4 hours. After 4 hours, the rats were released and the residual ointment was wiped off with clean water, then the rats were returned to the cage. The gavage frequency of inhibitors was shown in Table 2-2, and NO-NSAID was only applied once a day. The gavage and application operations were repeated daily until the end of the experiment.
Table 2-2 lists the animal experimental combinations of various anti-tumor agents and NO-NSAID ointments, as well as the corresponding experimental results (wherein the value in the control rate column=the hand-foot syndrome incidence rate in the blank group−the hand-foot syndrome incidence rate in the treatment group).

[2] = test system: chemotherapy-induced hand-foot syndrome; assay: Prevention of chemotherapy-induced hand-foot syndrome in rat models (Table 5); assay type: in vivo, SD rats
Procedure: Rat animal model was constructed. After several days, the rats develop hand-foot syndrome in their paws. After one week of acclimatization (about 200 g), the SD rats are divided into groups of 10 rats each, followed by gavage administration experiment. The chemotherapy drugs were dissolved, and each rat was given a gavage dose of 1 mL/100 g. After gavage, the rats were fixed with a fixed cylinder. NO-NSAID ointment was applied to the paws of the rats in the medication group, and blank ointment was applied to the paws of the rats in the blank group (as blank control). […] Table 5 lists the animal experimental combinations of chemotherapy drugs and NO-NSAID ointment, as well as the corresponding experimental results (where the value in the control rate column=the incidence rate of hand-foot syndrome in the blank group−the incidence rate of hand-foot syndrome in the treatment group).

[3] = 120 h, Sorafenib 80 mg/kg once a day, Days 5
[4] = 360 h, Apatinib 105 mg/kg once a day, Days 15
[5] = 360 h, Encorafenib 80 mg/kg once a day, Days 15
[6] = 360 h, Lapatinib 120 mg/kg twice a day, Days 15
[7] = 360 h, Sunitinib 120 mg/kg once a day, Days 15
[8] = 384 h, Fruquintinib 40 mg/kg once a day, Days 16
[9] = 432 h, Anlotinib 20 mg/kg once a day, Days 18
[10] = 432 h, Axitinib 50 mg/kg once a day, Days 18
[11] = 432 h, Cabozantinib 50 mg/kg once a day, Days 18
[12] = 432 h, Lenvatinib 100 mg/kg twice a day, Days 18
[13] = 432 h, Nintedanib 110 mg/kg once a day, Days 18
[14] = 432 h, Regorafenib 90 mg/kg once a day, Days 18
[15] = 480 h, Erdafitinib 45 mg/kg once a day, Days 20
[16] = 480 h, Olmutinib 100 mg/kg once a day, Days 20
[17] = Capecitabine 4000 mg/kg once a day, ointment 1% wt, Days 40
[18] = Capecitabine 4000 mg/kg once a day, ointment 3% wt, Days 40
[19] = Doxorubicin 7 mg/kg once every three days, ointment 1% wt, Days 30
[20] = Acelarin 130 mg/kg twice a week, ointment 1% wt, Days 30
[21] = Capecitabine 4000 mg/kg once a day, ointment 2% wt, Days 40
[22] = Capecitabine 4000 mg/kg once a day, ointment 5% wt, Days 40
[23] = Cytarabine 120 mg/kg twice a day, ointment 5% wt, Days 30

CC(C(=O)OCCCO[N+](=O)[O-])c1ccc(-c2ccccc2)c(F)c1 (stereo not drawn) [Compound A1]
responders at 0.5 % [1, 3]: 42.9%
responders at 1 % [1, 3]: 42.9%
responders at 2.5 % [1, 3]: 60%
responders at 5 % [1, 3]: 83.3%
responders at 2.5 % [1, 4]: 57.1%
responders at 2.5 % [1, 5]: 60%
responders at 2.5 % [1, 6]: 33.3%
responders at 2.5 % [1, 7]: 57.1%
responders at 2.5 % [1, 8]: 57.1%
responders at 2.5 % [1, 9]: 33.3%
responders at 2.5 % [1, 10]: 60%
responders at 1 % [1, 11]: 40%
responders at 2.5 % [1, 11]: 33.3%
responders at 5 % [1, 11]: 66.7%
responders at 1 % [1, 12]: 28.6%
responders at 2.5 % [1, 12]: 57.1%
responders at 5 % [1, 12]: 57.1%
responders at 1 % [1, 13]: 33.3%
responders at 2.5 % [1, 13]: 66.7%
responders at 5 % [1, 13]: 66.7%
responders at 0.5 % [1, 14]: 33.3%
responders at 1 % [1, 14]: 50%
responders at 2.5 % [1, 14]: 42.9%
responders at 5 % [1, 14]: 80%
responders at 2.5 % [1, 15]: 42.9%
responders at 2.5 % [1, 16]: 50%
Control rate [2, 17]: 37.50%
Control rate [2, 18]: 44.44%
Control rate [2, 19]: 50.00%

CC(=O)Oc1ccccc1C(=O)Oc1cccc(CO[N+](=O)[O-])c1 [Compound A2]
responders at 1 % [1, 3]: 50%
responders at 2 % [1, 3]: 50%
responders at 5 % [1, 3]: 66.7%
responders at 10 % ([1]; 120 h, Sorafenib 80 mg/kg once a day, ointment 10% wt, Days 5): 80%
responders at 3 % [1, 4]: 50%
responders at 3 % [1, 5]: 42.9%
responders at 3 % [1, 6]: 33.3%
responders at 3 % [1, 7]: 42.9%
responders at 3 % [1, 8]: 71.4%
responders at 3 % [1, 9]: 66.7%
responders at 3 % [1, 10]: 40%
responders at 1 % [1, 11]: 28.6%
responders at 2.5 % [1, 11]: 42.9%
responders at 5 % [1, 11]: 66.7%
responders at 1 % [1, 12]: 42.9%
responders at 3 % [1, 12]: 42.9%
responders at 5 % [1, 12]: 71.4%
responders at 1 % [1, 13]: 33.3%
responders at 3 % [1, 13]: 50%
responders at 5 % [1, 13]: 66.7%
responders at 1 % [1, 14]: 57.1%
responders at 5 % [1, 14]: 66.7%
responders at 3 % [1, 15]: 71.4%
responders at 3 % [1, 16]: 60%
Control rate [2, 20]: 28.57%
Control rate [2, 21]: 22.22%
Control rate [2, 22]: 28.57%
Control rate ([2]; Capecitabine 4000 mg/kg once a day, ointment 10% wt, Days 40): 33.33%
Control rate ([2]; Cytarabine 120 mg/kg twice a day, ointment 2% wt, Days 30): 14.29%
Control rate [2, 23]: 42.86%

CC(=O)Oc1ccccc1C(=O)OCOC(=O)CCCCCO[N+](=O)[O-] [Compound A3]
responders at 1 % [1, 3]: 50%
responders at 3 % [1, 3]: 57.1%
responders at 1 % [1, 14]: 42.9%
responders at 3 % [1, 14]: 71.4%
Control rate [2, 17]: 28.57%
Control rate [2, 18]: 37.50%

CC(C)Cc1ccc(C(C)C(=O)OCO/N=[N+](\[O-])N(C)C)cc1 (stereo not drawn) [Compound A4]
responders at 0.5 % [1, 3]: 42.9%
responders at 2 % [1, 3]: 71.4%
Control rate ([2]; Capecitabine 4000 mg/kg once a day, ointment 0.50% wt, Days 40): 25.00%
Control rate [2, 21]: 57.14%
Control rate ([2]; Cytarabine 120 mg/kg twice a day, ointment 0.50% wt, Days 30): 28.57%

COc1ccc2cc(C(C)C(=O)OCCCCO[N+](=O)[O-])ccc2c1 (stereo not drawn) [Compound A5]
responders at 0.5 % [1, 3]: 28.6%
responders at 1 % [1, 3]: 50%
responders at 2.5 % [1, 3]: 71.4%
responders at 5 % [1, 3]: 80%
responders at 2.5 % [1, 4]: 42.9%
responders at 2.5 % [1, 5]: 66.7%
responders at 2.5 % [1, 6]: 60%
responders at 2.5 % [1, 7]: 57.1%
responders at 2.5 % [1, 8]: 42.9%
responders at 2.5 % [1, 9]: 50%
responders at 2.5 % [1, 10]: 66.7%
responders at 1 % [1, 11]: 42.9%
responders at 2.5 % [1, 11]: 60%
responders at 5 % [1, 11]: 57.1%
responders at 1 % [1, 12]: 28.6%
responders at 2.5 % [1, 12]: 71.4%
responders at 5 % [1, 12]: 71.4%
responders at 1 % [1, 13]: 40%
responders at 2.5 % [1, 13]: 66.7%
responders at 5 % [1, 13]: 50%
responders at 0.5 % [1, 14]: 50%
responders at 1 % [1, 14]: 71.4%
responders at 2.5 % [1, 14]: 71.4%
responders at 5 % [1, 14]: 83.3%
responders at 2.5 % [1, 15]: 57.1%
responders at 2.5 % [1, 16]: 66.7%
Control rate [2, 20]: 28.57%
Control rate ([2]; Acelarin 130 mg/kg twice a week, ointment 2.50% wt, Days 30): 57.14%
Control rate [2, 17]: 12.50%
Control rate ([2]; Capecitabine 4000 mg/kg once a day, ointment 2.50% wt, Days 40): 22.22%
Control rate [2, 22]: 50.00%
Control rate ([2]; Cytarabine 120 mg/kg twice a day, ointment 1% wt, Days 30): 14.29%
Control rate ([2]; Cytarabine 120 mg/kg twice a day, ointment 2.50% wt, Days 30): 28.57%
Control rate [2, 23]: 57.14%
Control rate [2, 19]: 37.50%
Control rate ([2]; Doxorubicin 7 mg/kg once every three days, ointment 2.50% wt, Days 30): 50.00%

CC(=O)Oc1ccccc1C(=O)OCc1no[n+]([O-])c1C(N)=O [Compound A6]
responders at 1 % [1, 3]: 66.7%
responders at 1 % [1, 5]: 40%
responders at 1 % [1, 11]: 40%
responders at 3 % [1, 11]: 42.9%
Control rate [2, 21]: 42.86%
